Experimental data reported in patent publication US11746125B2, “Biomimetic peptides derived from biological source and their uses in retarding aging and improving skin” (TCI CO., LTD., priority 2019, dated 2023).

Test system: human fibroblast cell line (CCD-966SK)
Assay: Assay in increasing expression of genes: human fibroblast cells cultured with peptides, RNA detected by nCounter Analysis System
Assay type: cell-based
Method: A human fibroblast cell line (CCD-966SK) was used to assay gene expression affected by the peptides of the present disclosure. 1×10^5 of fibroblast cells were seeded and cultured in a 6-well plate containing 2 ml of X-VIVO™ 10 medium. […] The cells cultured with the medium only for 6 or 24 hours were used as control.
The resulting cultured cells were washed with PBS and lysed by adding a lysis reagent. The resulting cell lysis solutions were extracted by RNA Extraction Kit (GENEzol™ 96 Well TriRNA Pure Kit, Geneaid) to collect the RNAs in the cells. The expression of genes was detected by the nCounter Analysis System (NanoString Technologies, Inc.)

[1] = 12.5 μg/ml, 24 hours, vs control
[2] = peptides 12.5 and 25 μg/ml, 6 or 24 hours

Q: “QRIKYIKP [Chiro-8, synthetic 8-mer peptide QRIKYIKP]” was tested. Which “expression of moisture-retention related genes (SMPD1)” value (12.5 μg/ml and 25 μg/ml, 24 hours, vs control) did it give?
A: increase

Q: And the “expression of anti-aging genes (NADSYN, MRPS5, Ub1-5 and/or FOXO)” value [1]?
A: increase

Q: What about the “expression of collagen I gene (COLA1)” value (12.5 μg/ml, vs control) of the same substance?
A: increases

Q: And the “expression of collagen IV gene (COL4A1)” value (12.5 μg/ml, vs control)?
A: increases

Q: What about the “expression of elastin gene (ELN)” value (12.5 μg/ml, vs control) of the same substance?
A: increases

Q: And the “expression of anti-inflammatory factor IL-6” value (24 hours)?
A: inhibits

Q: What about the “expression of MMP1” value (24 hours, vs control) of the same substance?
A: inhibiting

Q: What about the “expression of anti-aging genes (NADSYN, MRPS5, Ub1-5 and/or FOXO)” value [2] of the same substance?
A: increase

Q: And the “expression of anti-inflammatory factor IL-6” value [2]?
A: inhibits

Q: And the “expression of collagen I gene” value [2]?
A: increases

Q: And the “expression of elastin genes” value [2]?
A: increases

Q: And the “expression of genes relating to collagen breakdown (MMP-1)” value (“expression of genes relating” for short) [2]?
A: inhibiting

Q: And the “expression of moisture-retention related genes (SMPD1)” value [2]?
A: increases

Q: What does the source list for “QKRRTCK [Heter-7, synthetic 7-mer peptide QKRRTCK]”?
A: MMP1 (2.5 μg/ml, 12 hours, vs control): inhibiting; expression of collagen I gene (12.5 μg/ml, vs control): increases; expression of TIMP1 gene (25 μg/ml, 12 hours, vs control): increases; expression of anti-aging genes (Atg1 and Ub15) (25 μg/ml, 12 hours, vs control): increase; expression of telomerase gene (TERC) (25 μg/ml, 12 hours, vs control): increase; expression of DNA repair genes (ERCC1 and XRCC5) (25 μg/ml, vs control): increase; expression of anti-oxidation gene SOD2 (25 μg/ml, vs control): increase; expression of DNA repair genes (ERCC1 and XRCCS) (peptides 12.5 and 25 μg/ml): increases; expression of anti-aging genes (Atg1 and Ubl5) (peptides 12.5 and 25 μg/ml): increases; expression of anti-oxidation gene SOD2 (peptides 12.5 and 25 μg/ml): increases; expression of TIMP1 [2]: increases; expression of collagen I gene [2]: increases; expression of genes relating to collagen breakdown (MMP-1) [2]: inhibiting; expression of telomerase genes (TERC) [2]: increases

Q: For “TKSGKF [Latrol-6, synthetic 6-mer peptide TKSGKF]”, which “expression of SMPD1 (moisture-retention related gene) and/or HAS2” value (25 μg/ml, 6 hours, vs control) is on record?
A: increases

Q: And the “expression of anti-aging genes (NADSYN, Atgl, MRPS5)” value (25 μg/ml, 24 hours, vs control)?
A: increases

Q: And the “expression of collagen I gene (COL1A1)” value (25 μg/ml, 24 hours, vs control)?
A: increases

Q: And the “expression of collagen IV gene (COL4A1)” value (25 μg/ml, 24 hours, vs control)?
A: increases

Q: What about the “expression of elastin gene (ELN)” value (25 μg/ml, 24 hours, vs control) of the same substance?
A: increases

Q: And the “expression of DNA repair genes (UNG and MSH6)” value (6 hours or 24 hours, vs control)?
A: increases

Q: What about the “expression of telomerase genes (TERC)” value (6 hours, vs control) of the same substance?
A: increase

Q: And the “expression of DNA repair genes (UNG, MSH6, XRCCS and/or MSH6)” value [2]?
A: increase

Q: What about the “expression of SMPD1 (moisture-retention related genes) and/or HSAS2” value [2] of the same substance?
A: increases

Q: What about the “expression of anti-aging genes (NADSYN, Atg1, MRPS5, CCT2 and/or CCT8)” value [2] of the same substance?
A: increase

Q: What about the “expression of collagen I gene” value [2] of the same substance?
A: increases

Q: What about the “expression of collagen IV gene” value [2] of the same substance?
A: increases

Q: What about the “expression of elastin genes” value [2] of the same substance?
A: increases

Q: And the “expression of genes relating” value [2]?
A: inhibiting

Q: And the “expression of telomerase genes (TERC)” value [2]?
A: increase

Q: What about the “expression of collagen I gene” value (text summary referring to FIG. 12 (A)) of the same substance?
A: increases

Q: For “LKSGR [Latrol-5, synthetic 5-mer peptide LKSGR]”, which “expression of anti-aging genes (NADSYN, CCT2 and CCT8)” value (25 μg/ml, 6 hours, vs control) is on record?
A: increases

Q: And the “expression of collagen I gene (COL1A2)” value (25 μg/ml, 6 hours, vs control)?
A: increases

Q: And the “expression of genes relating” value (25 μg/ml, 6 hours, vs control)?
A: inhibiting

Q: What about the “expression of DNA repair genes (XRCC5 and/or MSH6)” value (6 hours, vs control) of the same substance?
A: increases

Q: And the “expression of telomerase genes (TERC)” value (24 hours, vs control)?
A: increase

Q: What about the “expression of DNA repair genes (UNG, MSH6, XRCCS and/or MSH6)” value [2] of the same substance?
A: increase

Q: And the “expression of anti-aging genes (NADSYN, Atg1, MRPS5, CCT2 and/or CCT8)” value [2]?
A: increase

Q: What about the “expression of telomerase genes (TERC)” value [2] of the same substance?
A: increase

Q: Which results are given for “KIFKF [Chiro-5, synthetic 5-mer peptide KIFKF]”?
A: expression of anti-aging genes (NADSYN, MRPS5, Ub1-5 and/or FOXO) [1]: increase; expression of MMP1 (25 μg/ml, vs control): inhibiting; expression of collagen I gene (COL1A2) (25 μg/ml, vs control): increase; expression of anti-aging genes (NADSYN, MRPS5, Ub1-5 and/or FOXO) [2]: increase; expression of collagen I gene [2]: increases; expression of genes relating to collagen breakdown (MMP-1) [2]: inhibiting

Q: What does the source list for “PRPIK [Hapa-5, synthetic 5-mer peptide PRPIK]”?
A: expression of DNA repair genes (ERCC1) [1]: increase; expression of telomerase genes (TERC) [1]: increase; expression of anti-aging genes (Atg1, Ub1-5 and FOXO) (25 μg/ml, 24 hours, vs control): increase; expression of genes relating to collagen breakdown (MMP-1) (25 μg/ml, 24 hours, vs control): inhibits; expression of TIMP1 (6 hours, vs control): increases; expression of collagen IV genes (COL4A1) (6 hours, vs control): increases; expression of elastin genes (ELN) (6 hours, vs control): increases; expression of DNA repair genes (ERCC1) [2]: increase; expression of TIMP1 [2]: increase; expression of anti-aging genes (Atg1, Ubl-5 and FOXO) [2]: increase; expression of collagen IV gene [2]: increase; expression of elastin genes [2]: increase; expression of genes relating to collagen breakdown (MMP-1) [2]: inhibits; expression of moisture-retention related genes (ELG-F and GBA) [2]: increase; expression of telomerase genes (TERC) [2]: increase; expressions of moisture-retention related genes (ELG-F and GBA) (vs control, concentration not given): increase

Q: What does the source list for “VKNAKY [Hapa-6, synthetic 6-mer peptide VKNAKY]”?
A: expression of anti-aging genes (Atg1, Ub1-5 and FOXO) (12.5 μg/ml, 6 hours, vs control): increase; expression of genes relating to collagen breakdown (MMP-1) [1]: inhibits; expressions of moisture-retention related genes (ELG-F and GBA) (25 μg/ml, vs control): increase; expression of DNA repair genes (ERCC1) (12.5 and 25 μg/ml, 6 hours, vs control): increase; expression of telomerase genes (TERC) (12.5 and 25 μg/ml, 24 hours, vs control): increase; expression of TIMP1 (6 hours, vs control): increase; expression of elastin genes (ELN) (6 hours, vs control): increase; expression of collagen I genes (COL1A2) (24 hours, vs control): increase; expression of DNA repair genes (ERCC1) [2]: increase; expression of TIMP1 [2]: increase; expression of anti-aging genes (Atg1, Ubl-5 and FOXO) [2]: increase; expression of collagen I gene [2]: increase; expression of elastin genes [2]: increase; expression of genes relating to collagen breakdown (MMP-1) [2]: inhibits; expression of moisture-retention related genes (ELG-F and GBA) [2]: increase; expression of telomerase genes (TERC) [2]: increase
